{
  "source": "patent US20070232575A1",
  "about": "“Treatment of Pulmonary Artery Hypertension with Dhea, Dheas, Dhea Analogs, or Dhea Derivatives” (priority 2004, published 2007)",
  "key": {"PASMCs": {"system": "PASMCs", "experiment": "Resting [Ca2+]i of PASMCs from orally DHEA-treated CH rats (indo-1)", "type": "in vivo, rat", "conditions": "for effect on [Ca2+]i of PASMCs: CH rats", "experimental": "The heart and lungs were removed and intrapulmonary arteries (IPAs) (150-300 μm of internal diameter) were then dissected. The adventitial and intimal layers were removed. For contraction experiments, rings (3 mm in length) were prepared.\nAs mentioned earlier, Ca^2+ is thought to play an important role in the response to chronic hypoxia. To measure the effects of DHEA on [Ca^2+]i of individual PASMCs, a [Ca^2+]i-sensitive fluorophore, indo-1 (Calbiochem, San Diego, Calif.), was employed. PASMCs were loaded with indo-1 by incubation in physiological salt solution (139.6 mM NaCl/6.2 mM KCl/1 mM MgCl2/12.1 mM glucose/10 mM Hepes) containing 1 μM indo-1 penta-acetoxymethyl ester (Indo-1 a.m.) for 25 minutes at room temperature. The recording system included a Nikon Diaphot inverted microscope fitted with epifluorescence. The studied cell was illuminated at 360 nm and counted simultaneously at 405 nm and 480 nm by two photomultipliers (P100, Nikon). […] [Ca^2+]i was estimated from the 405:480 ratio (Bonnet, S., et al. (2001) Am. J. Physiol. 281, L193-L201)."}, "systemic circulation": {"system": "systemic circulation", "experiment": "Systemic circulation and cardiac function (systemic blood pressure, heart rate, cardiac output)", "experimental": "To determine the effect of the chronic hypoxia treatment-induced CH-PAH and to determine the effect of DHEA administration on PAP, the following PAP measurement method was used. Rats were anaesthetized with ketamine 50 mg/kg and xylazine 10 mg/kg by i.p. injection. Mean PAP was measured with 2.5-F catheters inserted into the right jugular vein in closed-chest rats (Bonnet, S., et al. (2002) Cardiovasc. Res. 53, 1019-1028, which is incorporated by reference herein in its entirety). The effect of DHEA on the systemic blood pressure was controlled by another catheter placed into the left carotid artery. Throughout all the experiments, heart rate and oxygen saturation were monitored. Acute hypoxic stress with fraction of inspired O2 of 10% were applied by administration of an air plus nitrogen gas mixture. The fraction of inspired O2 was monitored with an oxygen analyzer (Servomex, Crowborough, Great Britain), and the effects on the PAP were measured over a 10-15 minute period.\nEchocardiography measurements were also performed to determine differences between the treated and control rats. To perform this procedure, the rats were first anaesthetized. After thorax epilation, the animals were placed in the left lateral decubitus position. Resting echocardiography measurements were performed at ambient conditions by using a SONOS 5500 (Philips) echocardiograph and a 12-MHz sector scare transducer. Right and left ventricle wall thickness was measured on M-mode tracings following the recommendations of the American Society of Echocardiology as described by Jones et al. ((2002) Am. J. Physiol. 283, H364-H371). Right cardiac output was evaluated by measuring the electrical R-R delay, the PA diameter, and the velocity time integral (VTI) of PA flux."}, "BKCa": {"target": "T1, BKCa (Homo sapiens, UniProt Q12791)", "T1 construct": "host or cells: hypoxic human pulmonary cells", "T1 sequence (Q12791 whole entry)": "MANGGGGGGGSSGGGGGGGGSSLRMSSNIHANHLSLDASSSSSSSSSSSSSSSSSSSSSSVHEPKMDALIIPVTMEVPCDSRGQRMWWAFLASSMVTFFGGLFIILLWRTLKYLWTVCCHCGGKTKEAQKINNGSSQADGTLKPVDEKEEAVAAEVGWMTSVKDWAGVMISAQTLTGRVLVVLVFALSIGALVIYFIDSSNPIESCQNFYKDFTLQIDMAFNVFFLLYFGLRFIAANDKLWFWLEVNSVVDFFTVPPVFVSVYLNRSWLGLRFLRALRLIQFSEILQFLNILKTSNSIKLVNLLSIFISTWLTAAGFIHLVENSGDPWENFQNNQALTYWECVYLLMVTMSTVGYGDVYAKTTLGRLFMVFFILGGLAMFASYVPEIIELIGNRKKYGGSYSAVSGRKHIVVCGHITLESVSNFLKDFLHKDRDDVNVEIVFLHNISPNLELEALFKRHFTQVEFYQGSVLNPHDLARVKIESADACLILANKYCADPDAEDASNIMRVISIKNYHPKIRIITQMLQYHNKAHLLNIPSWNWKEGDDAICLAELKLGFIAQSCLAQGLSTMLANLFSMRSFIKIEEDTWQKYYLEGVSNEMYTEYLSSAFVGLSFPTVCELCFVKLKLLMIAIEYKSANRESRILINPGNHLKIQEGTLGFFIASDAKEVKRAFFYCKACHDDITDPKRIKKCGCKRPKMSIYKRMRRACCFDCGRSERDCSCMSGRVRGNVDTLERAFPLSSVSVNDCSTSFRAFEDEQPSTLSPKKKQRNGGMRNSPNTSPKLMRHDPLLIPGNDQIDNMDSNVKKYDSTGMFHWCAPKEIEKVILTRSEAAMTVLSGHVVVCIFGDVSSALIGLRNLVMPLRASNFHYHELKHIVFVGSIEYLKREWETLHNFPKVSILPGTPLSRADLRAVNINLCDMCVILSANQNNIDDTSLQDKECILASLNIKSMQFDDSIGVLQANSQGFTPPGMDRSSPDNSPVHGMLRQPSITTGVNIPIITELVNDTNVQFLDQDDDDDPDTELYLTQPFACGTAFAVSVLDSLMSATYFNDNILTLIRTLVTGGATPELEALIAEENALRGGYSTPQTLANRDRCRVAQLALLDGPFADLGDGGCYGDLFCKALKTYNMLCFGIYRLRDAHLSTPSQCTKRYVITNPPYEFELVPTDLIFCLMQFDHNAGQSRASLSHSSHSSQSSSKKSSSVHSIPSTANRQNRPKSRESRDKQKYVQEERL", "conditions": "hypoxic human pulmonary cells, Peng et al. 1999; cited from earlier work"}, "[1]": {"system": "chronic hypoxic-pulmonary artery hypertension (CH-PAH)", "experiment": "Echocardiography: right ventricular (RV) wall thickness in CH rats", "type": "in vivo, rat", "experimental": "The rat model experiments were performed as follows. Adult male Wistar rats (220-240 g) were randomized into five groups. […] Intravascular administration was performed via the catheter inserted in the right jugular vein.\nTo perform this procedure, the rats were first anaesthetized."}, "[2]": {"conditions": "one week oral DHEA treatment in CH rats"}},
  "note": "Entries after “also recorded” stand apart in the source; their conditions may differ.",
  "data": [
    {"compound": "C[C@]12CC[C@H](O)CC1=CC[C@@H]1[C@@H]2CC[C@]2(C)C(=O)CC[C@@H]12", "note": "[DHEA, dehydroepiandrosterone]", "values": [
      {"measurement": "resting [Ca2+]i value of PASMCs", "setting": "PASMCs; CH-DHEA rats (3 wk oral DHEA), CH 143±7, control 69.2±2.2", "result": "90.1 ± 3.2", "unit": "nM"},
      {"measurement": "resting [Ca2+]i value of PASMCs", "setting": "PASMCs; DHEA from day 15 to day 21 of chronic hypoxia, untreated 143±7", "result": "105 ± 3", "unit": "nM"},
      {"measurement": "effect on [Ca2+]i of PASMCs", "setting": "PASMCs; oral DHEA for 1 week", "result": "significant decrease; also recorded: decrease in [Ca^2+]i"},
      {"measurement": "effect on [Ca2+]i of PASMCs", "setting": "PASMCs; oral DHEA for 3 weeks", "result": "significant decrease; also recorded: decrease in [Ca^2+]i"},
      {"measurement": "cardiac output", "setting": "systemic circulation; [2]", "result": "did not affect"},
      {"measurement": "heart rate", "setting": "systemic circulation; [2]", "result": "did not affect"},
      {"measurement": "systemic pressure", "setting": "systemic circulation; [2]", "result": "did not affect"},
      {"measurement": "cardiac output", "setting": "systemic circulation; oral DHEA 3 weeks", "result": "No significant changes"},
      {"measurement": "heart rate", "setting": "systemic circulation; oral DHEA 3 weeks", "result": "No significant changes"},
      {"measurement": "cardiac function", "setting": "systemic circulation; oral DHEA 3 weeks, CH-DHEA rats (FIG. 1 D and E)", "result": "did not affect"},
      {"measurement": "systemic blood pressure / systemic circulation", "setting": "systemic circulation; oral DHEA 3 weeks, control, DHEA treated and untreated groups", "result": "No significant changes; also recorded: did not affect"},
      {"measurement": "action on BKCa", "setting": "BKCa", "result": "BKCa opener"},
      {"measurement": "RV wall thickness", "setting": "[1]; CH-DHEA rats, oral DHEA during 3 wk hypoxia, untreated CH 2.74±0.5", "result": "1.6±0.03", "unit": "mm"},
      {"measurement": "RV wall thickness, CH-DHEA vs control rats", "setting": "[1]; after 1 or 2 wk of hypoxia exposure with oral DHEA", "result": "no difference"},
      {"measurement": "effect on RV wall thickness / right ventricle hypertrophy (prevention)", "setting": "[1]; oral DHEA for 3 weeks during chronic hypoxia", "result": "significant preventive effect; also recorded: decreased; also recorded: almost entirely prevent"},
      {"measurement": "effect on RV wall thickness", "setting": "[1]; oral DHEA, normoxic rats", "result": "no effect"},
      {"measurement": "RV wall thickness", "setting": "[1]; rats 3 weeks in CH, oral DHEA during the last week, no DHEA 2.97±0.4", "result": "1.91±0.2", "unit": "mm"}
    ]}
  ]
}
